Measurements from patent US5591741A, “Fungicidal spiroheterocyclic derivatives” (American Cyanamid Company, priority 1993, dated 1997).

Key:
[1] = system: Leptosphaeria nodorum; assay: Activity against wheat leafspot (LN); assay type: in vivo; conditions: direct therapeutic foliar spray, 600 ppm, 6-8 days
Method in brief: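 Therapeutic foliar spray: compound at 600 ppm applied to single-leaf wheat (cv Norman) 24 h after inoculation with 1.5×10^6 conidia/ml. Disease control scored after 6-8 days at 22° C and 70% humidity as lesions per leaf versus untreated or diluent-sprayed controls.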

[2] = system: Rhizoctonia solani; assay: Activity against Rhizoctonia in-vitro (RSI); assay type: cell-based; conditions: 10 ppm, 10 days, 20° C., mycelial growth
Method in brief: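 Compound at a final 10 ppm (acetone vehicle) in half-strength PDB, inoculated with 5×10^4 fragments/ml of shaken-culture R. solani mycelium. After incubation at 20° C for 10 days, growth scored as a rating versus untreated or diluent-treated controls.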

[3] = system: Erysiphe graminis f.sp. hordei; assay: Activity against barley powdery mildew, direct therapeutic (EGT); assay type: in vivo; conditions: direct therapeutic foliar spray, 600 ppm, up to 7 days
Method in brief: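 A curative spray at 600 ppm was applied to single-leaf Golden Promise barley inoculated with powdery mildew conidia the previous day. After up to 7 days at 18 °C and 40% humidity, disease control was rated from percent leaf area sporulating relative to untreated or diluent-sprayed controls.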

[4] = system: Plasmopara viticola; assay: Antisporulant activity against vine downy mildew (PVA); assay type: in vivo; conditions: vine leaves, antisporulant foliar spray, 600 ppm, 750 l/ha
Method in brief: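 Cabernet Sauvignon vines (~8 cm) inoculated on lower leaf surfaces with 5×10^4 zoosporangia/ml, held 24 h at 21° C high humidity then 24 h glasshouse. Infected leaves sprayed underside with 600 ppm compound in 1:1 water/acetone, 0.04% Tween 20, 750 l/ha; 96 h glasshouse, 24 h humidity. Sporulating leaf area rated versus control.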

[5] = system: Erysiphe graminis f.sp. hordei; assay: Direct protectant activity against barley powdery mildew (EGP); assay type: in vivo; conditions: direct protectant foliar spray, 8 days
Method in brief: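 Rating reflects percentage of leaf area with sporulation compared with untreated or diluent-sprayed controls. Protectant spray was applied to single-leaf barley (cv Golden Promise) 24 h before conidia inoculation. Plants were kept at 18 °C and 40% RH throughout, with 8 days of disease development.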

[6] = system: Alternaria solani; assay: Activity against tomato early blight (AS); assay type: in vivo; conditions: Table VI; tomato seedlings, contact prophylactic foliar spray, 4 days
Method in brief: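 Plants were challenged with A. solani conidia (10^4 spores/ml) 24 h after a protective foliar spray of compound in 50:50 acetone/water plus 0.04% Tween 20. Held humid at 21° C for 4 days, then percent leaf area with lesions was scored as a rating relative to controls.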

[7] = system: Phytophthora infestans; assay type: in vivo; conditions: tomato, direct protectant foliar spray
[8] = system: Botrytis cinerea; assay: Direct protectant activity against broad bean grey mould (BCB); assay type: in vivo; conditions: direct protectant foliar spray, 600 ppm, 4 days
Method in brief: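 Protectant foliar test: lesion coverage assessed 4 days after inoculation and rated relative to untreated or diluent-sprayed plants. Compound applied at 600 ppm to cv The Sutton leaves 24 h before 10^6 conidia/ml suspension; incubation at 22 °C in high humidity.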

[9] = system: Pseudocercosporella herpotrichoides; assay: Activity against wheat eyespot in-vitro (PHI); assay type: cell-based; conditions: 10 ppm, 10 days, 20° C., mycelial growth
Method in brief: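 Mycelial growth was scored after 10 days at 20 °C against untreated or diluent controls. The broth was half-strength potato dextrose, holding 10 ppm test compound (from acetone) and 5×10^4 fragments/ml of the eyespot fungus.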

[10] = system: Venturia inaequalis; assay: Activity against apple scab in-vitro (VII); assay type: cell-based; conditions: 10 ppm, 10 days, 20° C., mycelial growth
Method in brief: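 V. inaequalis propagules (5×10^4/ml, malt agar-grown) were exposed in half-strength PDB to 10 ppm final test compound delivered in acetone. Growth was scored after incubation for 10 days at 20° C, as a rating relative to untreated or diluent-sprayed controls.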

[11] = system: Pyricularia oryzae; assay type: in vivo; conditions: rice seedlings, direct therapeutic foliar spray, 600 ppm, 4-5 days

Row | Compound | disease control rating LN [1] | disease control rating RSI [2] | disease control rating EGT [3] | disease control rating PVA [4] | disease control rating EGP [5] | disease control rating AS [6] | disease control rating PIP [7] | disease control rating BCB [8] | disease control rating PHI [9] | disease control rating VII [10] | disease control rating PO [11]
1 | CCCN(C1COC2(CCC(C(C)(C)C)CC2)C1)C1CC2CCC1C2 (centres unmarked) [Compound 130] | 0 (less than 50% disease control) | 0 (less than 50% disease control) | 2 (greater than 80% disease control) | 0 (less than 50% disease control) | 2 (greater than 80% disease control) | 0 (less than 50% disease control) | 2 (greater than 80% disease control) | 0 (less than 50% disease control) | 0 (less than 50% disease control) | 1 (about 50-80% disease control) | 0 (less than 50% disease control)
2 | CN(CC(C)(C)C)C1COC2(CCC(C(C)(C)C)CC2)C1 (centres unmarked) [Compound 131] | 0 (less than 50% disease control) | 0 (less than 50% disease control) | 2 (greater than 80% disease control) | 0 (less than 50% disease control) | 2 (greater than 80% disease control) | 0 (less than 50% disease control) | 0 (less than 50% disease control) | 0 (less than 50% disease control) | 0 (less than 50% disease control) | 1 (about 50-80% disease control) | 0 (less than 50% disease control)
3 | CCN(CC(C)(C)C)C1COC2(CCC(C(C)(C)C)CC2)C1 (centres unmarked) [Compound 132] | 0 (less than 50% disease control) | 0 (less than 50% disease control) | 2 (greater than 80% disease control) | 0 (less than 50% disease control) | 2 (greater than 80% disease control) | 0 (less than 50% disease control) | 0 (less than 50% disease control) | 0 (less than 50% disease control) | 0 (less than 50% disease control) | 1 (about 50-80% disease control) | 0 (less than 50% disease control)
4 | CCCN(CC(C)(C)C)C1COC2(CCC(C(C)(C)C)CC2)C1 (centres unmarked) [Compound 133] | 0 (less than 50% disease control) | 0 (less than 50% disease control) | 2 (greater than 80% disease control) | 0 (less than 50% disease control) | 2 (greater than 80% disease control) | 0 (less than 50% disease control) | 0 (less than 50% disease control) | 0 (less than 50% disease control) | 0 (less than 50% disease control) | 1 (about 50-80% disease control) | 0 (less than 50% disease control)
5 | CC(C)(C)CNC1COC2(CCC(C(C)(C)C)CC2)C1 (centres unmarked) [Compound 134] | 0 (less than 50% disease control) | 0 (less than 50% disease control) | 2 (greater than 80% disease control) | 0 (less than 50% disease control) | 2 (greater than 80% disease control) | 0 (less than 50% disease control) | 0 (less than 50% disease control) | 0 (less than 50% disease control) | 0 (less than 50% disease control) | 0 (less than 50% disease control) | 0 (less than 50% disease control)
6 | CC(C)CNC1COC2(CCC(C(C)(C)CC(C)(C)C)CC2)C1 (centres unmarked) [Compound 137] | 2 (greater than 80% disease control) | 2 (greater than 80% disease control) | 2 (greater than 80% disease control) | 0 (less than 50% disease control) | 2 (greater than 80% disease control) | 0 (less than 50% disease control) | 0 (less than 50% disease control) | 0 (less than 50% disease control) | 2 (greater than 80% disease control) | 1 (about 50-80% disease control) | 0 (less than 50% disease control)
7 | CC(C)(C)C1CCC2(CC1)CC(NC1CCC3CCCCC3C1)CO2 (centres unmarked) [Compound 138] | 0 (less than 50% disease control) | 0 (less than 50% disease control) | 0 (less than 50% disease control) | 0 (less than 50% disease control) | 0 (less than 50% disease control) | 0 (less than 50% disease control) | 2 (greater than 80% disease control) | 0 (less than 50% disease control) | 0 (less than 50% disease control) | 0 (less than 50% disease control) | 0 (less than 50% disease control)
8 | CC(C)CNC1COC2(CCC(C(C)(C)C3CCCCC3)CC2)C1 (centres unmarked) [Compound 139] | 1 (about 50-80% disease control) | 0 (less than 50% disease control) | 2 (greater than 80% disease control) | 0 (less than 50% disease control) | 2 (greater than 80% disease control) | 0 (less than 50% disease control) | 0 (less than 50% disease control) | 0 (less than 50% disease control) | 2 (greater than 80% disease control) | 2 (greater than 80% disease control) | 0 (less than 50% disease control)
9 | CCCCCCN(C)C1COC2(CCC(C(C)(C)C3CCCCC3)CC2)C1 (centres unmarked) [Compound 140] | 1 (about 50-80% disease control) | 2 (greater than 80% disease control) | 2 (greater than 80% disease control) | 0 (less than 50% disease control) | 2 (greater than 80% disease control) | 0 (less than 50% disease control) | 0 (less than 50% disease control) | 0 (less than 50% disease control) | 2 (greater than 80% disease control) | 2 (greater than 80% disease control) | 0 (less than 50% disease control)
10 | CC1CCN(C2COC3(CCC(C(C)(C)C4CCCCC4)CC3)C2)CC1 (centres unmarked) [Compound 141] | 1 (about 50-80% disease control) | 2 (greater than 80% disease control) | 2 (greater than 80% disease control) | 0 (less than 50% disease control) | 2 (greater than 80% disease control) | 0 (less than 50% disease control) | 0 (less than 50% disease control) | 0 (less than 50% disease control) | 2 (greater than 80% disease control) | 2 (greater than 80% disease control) | 0 (less than 50% disease control)
